Data on 88 compounds can be found in a melting point compilation (Tetko et al.; mined from patent text by program, amines drawn as free bases though some values may be those of a salt).

Non-standard residues stand in square brackets, D forms with d. Residues, ends and D or L forms follow the SMILES beside them. *: point of attachment. pGlu = O=C1CC[CH](C(=O)O)N1; Morpholide = C1CN(*)CCO1; Thz = O=C(O)[CH]1CSCN1

What is called melting point is the temperature of the solid-liquid transition. Compound `CS(=O)(=O)Cc1cc(C(=O)C=NCCCCCCN=CC(=O)c2ccc(OCc3ccccc3)c(CS(C)(=O)=O)c2)ccc1OCc1ccccc1` displayed a melting point of 162 to 163 °C.
For `CC(C)(C)OC(=O)N1CC(CO)c2c1cc([N+](=O)[O-])c1ccccc21` (stereo not drawn) the value was 176 °C; for `c1ccc2c(c1)ccn2Cc1ccncc1`, 65 to 68 °C; for `O=C(O)COc1ccc2c(-c3ccc(F)cc3)noc2c1Cl`, 233 to 237 °C.
Compound `CCC(CC)c1nc(-c2ccncc2)c(-c2ccc(Cl)cc2)n1CC` showed a melting point of 239 to 242 °C.
With `COc1ccc2c3c1OC1C(=O)CC(C)C4C(C2)N(C#N)CCC314` (stereo not drawn), the melting point was in the range of 237 to 241 °C.
`O=c1oc(-c2ccccc2)cc(O)c1C(Sc1ccccc1)C1CCCCC1` (stereo not drawn) displayed a melting point of 87 to 90 °C.
Under `C[C@H](N=C(C(N)=O)C(C)(C)C)c1ccccc1` stands 100 to 101 °C; under `Cn1nc(-c2cccc(F)c2)n(C)c1=S`, 126 to 128 °C.
For `Cc1cc(-c2csc(-c3cccc(C(=O)O)c3)n2)c(C)o1` the value was 174 to 175 °C.
For `Clc1ccc(C2NN=C(c3cccnc3)S2)cc1` (stereo not drawn) the value was 108 to 110 °C; for `CS(=O)(=O)c1cccc(NC(=O)c2cnn3c(C4CC4)cc(-c4ccc(C(F)(F)F)cc4)nc23)c1`, 231 to 234 °C; for `COc1ccc2c(c1)C(C(=O)O)CCO2` (stereo not drawn), 97.4 °C.
With `CCn1nc(-c2ccccc2)c(C(C)=O)c(Nc2cccc(C(=O)O)c2Cl)c1=O`, the melting point is 255 to 256 °C.
Under `CCCC(=O)c1ccc(OC)c(Cl)c1Cl` stands 42 to 44 °C; under `BrCc1ncc(Br)cn1`, 55 to 57 °C.
For `Cc1nc(-c2ccc(Cn3sccc3=O)cc2)cs1` the value was 150 to 152 °C.
Under `COc1cc(C(=O)N2Cc3ccc(C(=O)NCc4cccc(C(F)(F)F)c4)n3Cc3ccccc32)ccc1-c1ccccc1C` stands 176 to 177 °C; under `COCSc1ccc2c(c1)CC[C@@H]1[C@@H]2CC[C@]2(C)C(=O)CC[C@@H]12`, 55 °C.
The compound `COc1cc(OC)c2c(=O)[nH]c(-c3ccc(OCCO)c(OC)c3)nc2c1` registered a melting point of 246 to 248 °C.
For `CCc1c(CC(=O)NCCCCCCNC(=O)Cc2ccc(OC)cc2)ccc(OC)c1OC` the value was 123 to 125 °C.
Under `CC1Cn2c(=O)[nH]c3cccc(c32)CN1Cc1ccccc1` (stereo not drawn) stands 205 °C; under `CCCCCCCCCc1ccc(CCCC(N)(CO)CCO)cc1` (stereo not drawn), 71 to 73 °C; under `COC(=O)NNc1cc(Cl)c(C)c2c1OC(C)C2` (stereo not drawn), 112 to 114 °C.
For `Cn1c(C=NO)cnc1[N+](=O)[O-]` the value was 203 to 205 °C.
In turn, `CCOC(=O)c1cn2c(=O)n(C)c3ccccc3n2c1=O` displayed a melting point of 243 to 244 °C.
Under `Cc1cc(NC(=O)OC(C)(C)C)c(N)cc1-c1ccccc1` stands 122 °C; under `O=C1N(c2ccccc2)N=C(Nc2ccccc2)C1(Br)Br`, 190 °C.
Under `CC(=O)N(C)CCc1ccc(CCC(=O)O)cc1` stands 133 to 134 °C; under `OCCCN1CCN(C2=Nc3ccccc3Cn3c2cc2ccccc23)CC1`, 174 to 175 °C; under `CC(C)(C)OC(=O)NC(CC(=O)OCc1ccccc1)C(=O)C(C#N)=P(c1ccccc1)(c1ccccc1)c1ccccc1` (stereo not drawn), 42 to 44 °C.
For `Nc1nc(Nc2ccc(S(N)(=O)=O)cc2)sc1C(=O)c1ccc(C(=O)Oc2ccccc2)cc1` the value was over 300 °C; for `COc1ccc2c(c1)OC(C)(C)CC2=O`, 77 to 78 °C.
Turning to `O=C(CCN1CCCC1)Nc1cc(-c2nnc(SCc3cccc(F)c3)o2)ccn1`, the melting point fell in the range of 114 to 115 °C.
For `CC(C)=CCOc1ccc(C(=O)C=Cc2ccncc2)c(O)c1` the value was 99 to 100 °C; for `O=C1CCC(C(=O)N2CSCC2C(=O)N2CCOCC2)N1` (stereo not drawn) ([pGlu]-[Thz]-Morpholide; configuration not given here), 187 to 188 °C.
For `O=C(NC(=NCCSCc1cccs1)NCCCc1c[nH]cn1)c1ccccc1` the value was 128 to 129 °C; for `Cc1cccc2cc(N3CCN(CCO)CC3)[nH]c(=O)c12`, 209 to 210 °C.
For `O=C(Nc1cc(S(=O)(=O)NCCO)sc1Cl)c1cnn2c(C(F)F)cc(-c3ccc(C(F)(F)F)cc3)nc12` the value was 209 °C.
For the compound `COC(=O)c1ccc2c(c1)Sc1ccccc1N=C2N1CCOCC1`, the melting point was in the range of 114 to 115 °C.
For `CC(C)C(=O)NC(c1ccc(C=NO)cc1)C(F)(F)F` (stereo not drawn) the value was 169 to 171 °C; for `Clc1ccc(-c2ncn(CCCN3CCOCC3)c2-c2ccncc2)cc1Cl`, 106 °C; for `O=C(O)Cc1ccc(C#CC#Cc2ccc(CC(=O)O)cc2)cc1`, 91 °C.
Under `CC(NC(=O)C(NC(=O)OCc1ccccc1)C(C)C)C(=O)NC(CC(=O)OC(C)(C)C)C(O)c1nc2ccccc2o1` (mixture of isomers) stands 81 to 83 °C; under `CC(=O)NCCc1c[nH]c2ncccc12`, 168 °C; under `Cc1oc(-c2ccc(F)cc2)nc1CCOc1ccc(CN(O)C(N)=O)cc1`, 158 to 160 °C.
Under `Cc1ccc2c(n1)N(CCCN(C)C)c1ccccc1N(C)C2=O` stands 130 to 131 °C; under `CS(=O)(=O)c1ccc(-c2cnn(Cc3ccccc3)c(=O)c2-c2ccc(F)c(Cl)c2)cc1`, 134 to 136 °C.
With `CNS(=O)(=O)c1ccc(C2=C(c3ccccc3)C(=O)C(C)(C)O2)cc1Cl`, the melting point lay in the range of 136 to 137 °C.
Under `CN(C)C(=O)CCCCC(=O)O` stands 80 °C; under `CCCCc1c(-c2cc(C)c(OC)c(C)c2)[nH]c2ccccc12`, 76.8 to 77.7 °C; under `COc1cccc2c1nc(C(F)F)n2-c1nc(C2CCCN(C(=O)OC(C)(C)C)C2)nc(N2CCOCC2)n1` (stereo not drawn), 200 to 202 °C.
Under `Cc1cc(C)c(CC(=O)O)c(C#N)c1` stands 155 to 157 °C.
Under `CN1C(=O)c2c(n3ccnc3c3c2c2cccnc2n3C2OC(CO)C(O)C(O)C2O)C1=O` (stereo not drawn) stands 298 °C.
Regarding `O=[N+]([O-])c1ccc(-c2cccs2)c(-c2cccs2)c1`, the melting point lay in the range of 97 to 101 °C.
For `O=C(O)c1ccc(C2=CCC3CCC2C3)cc1` (stereo not drawn) the value was 180 to 181 °C; for `CCOC(=O)c1c[nH]c2cc(OC)c(OC)cc2c1=O`, 275 to 285 °C.
For `O=C(O)CC(C1CCCCC1)C1CCCCC1` the value was 118 to 120 °C.
Under `O=S1(=O)CCN(c2nc(Cl)nc3c(Cl)ncnc23)CC1` stands 270 to 273 °C.
The compound `C=CC(=O)NCCOC(C)(C)OCCNC(=O)C=C` had a melting point of 94 to 95 °C.
For `CNC1=NN(C(=O)C(C)(C)C)C(C)S1` (stereo not drawn) the value was 102 to 103 °C; for `CCOc1ccc(-n2c(Cl)ccc2-c2ccc(S(N)(=O)=O)cc2)cc1`, 124 to 125 °C; for `CCCCCCCN(CC)C(=O)CCC(=O)c1ccc(NS(C)(=O)=O)cc1`, 100 to 102 °C.
Under `O=c1c2cc(OCc3ccccc3)ccc2[nH]c2c([N+](=O)[O-])cc([N+](=O)[O-])c(Cl)c12` stands 217 to 220 °C.
In the case of `O=C(Nc1cc(Cl)c([N+](=O)[O-])cc1O)c1ccc(Cl)c(Cl)c1`, the melting point lay within 263 to 265 °C.
For `O=C(CNCc1cccc(C(F)(F)F)c1)Nc1cccc2c1C(=O)c1c(NC(=O)CNCc3cccc(C(F)(F)F)c3)cccc1C2=O` the value was 190 to 191 °C; for `N#Cc1c(O)nc2ccc([N+](=O)[O-])cc2c1O`, 281 to 282 °C; for `CCOc1nc(NCc2ccco2)nc(Nc2cccc(CN3CCOCC3)c2)n1`, 69 to 71 °C.
For `O=C(O)c1cn(-c2ccc(F)cc2)c2c(F)c(N3Cc4cccc(F)c4C3)c(F)cc2c1=O` the value was over 300 °C.
Compound `Clc1c(NC2=NCCO2)ccc2[nH]ncc12` yielded a melting point of 223 to 225 °C.
For `COc1ccc(-c2cc(=O)n(Cc3ccccc3)nc2-c2ccc(OC)c(F)c2)cc1` the value was 137 to 138 °C; for `COc1cc2c(Nc3cccc(Cl)c3F)ncnc2cc1O[C@H]1CCCN(C(=O)CN2CCN(C)CC2)C1`, 120 to 121 °C; for `CCOC(=O)[C@H](Cc1ccc(C(F)(F)F)cc1)[C@@H](O)c1ccncc1` (racemic), 78 to 80 °C.
For `Cc1ccc(Br)c(C)c1C(=O)O` the value was 121 °C.
For `O=[N+]([O-])c1cccnc1NCc1ccccn1` the value was 114 °C; for `CN1CCN(C2=Nc3cc(Br)ccc3Nc3nn(C)nc32)CC1`, 183 to 184 °C.
Compound `CC(=O)CN1CCc2c(c(=O)oc3cc(C)c(Cl)cc23)C1` had a melting point of 172 to 175 °C.
For the compound `Clc1cc(N2CCOCC2)ccc1Nc1ncc2c(Cl)cc(-c3ccccc3)n2n1`, the melting point was 242 to 244 °C.
For `Cc1ccc2c(n1)sc1c(S)nnnc12` the value was 205 to 208 °C; for `CCc1cc(C(C)(C)C)c(OP2OCC(C)(C)CO2)c(C(C)(C)C)c1CC(=O)O`, 134 to 136 °C; for `O=C(O)CCc1ccc(SCCC(c2ccccc2)(c2ccccc2)c2ccccc2)cc1`, 51 to 53 °C.
Under `O=C(O)c1cccc(Nc2nc(Oc3ccccc3)nc(Oc3cccc(Cl)c3)n2)c1` stands 227 to 230 °C.
Under `Cc1ncc2n1-c1ccc(Cl)cc1C(c1ccccc1F)N(O)C2` (stereo not drawn) stands 246 to 248 °C; under `COc1cccc(NC(=O)NC2N=C(c3ccccc3F)c3ccccc3N(C)C2=O)c1` (stereo not drawn), 271 to 273 °C; under `NC1CNC(=O)C12CC2` (stereo not drawn), 97 to 99 °C.
Compound `O=C(NC(=O)c1c(F)cccc1F)Nc1ccc(C(O)(C(F)(F)F)C(F)(F)F)cc1` displayed a melting point of 205 to 207 °C.
For `COc1ccccc1[C@@]1(O)[C@@H]2CNC[C@@H]2C(c2ccccc2)(c2ccccc2)C[C@@H]1O` the value was 230 °C; for `CC1(C)C(C#N)C1C(=O)O` (stereo not drawn), 101 to 106 °C.
